# Where two headings read alike, the source gives them in different places.
# Columns and labels:
# Assay type in all cases: cell-based
# [1] = test system: Streptococcus faecalis IID 682; assay: Antibacterial activity (MIC), Streptococcus faecalis IID 682; conditions: Enterococcus faecalis, IID682, Streptococcus faecalis IID 682, Gram +; read-out: Minimum inhibitory concentration (MIC)
# Protocol: (§1) The compounds of the present invention (A, C, D, E, F, G, H, I, J, L, O and P) and the known compound (X) as reference were dissolved in 0.1 N aqueous sodium hydroxide to prepare a solution of 5000 μg/ml in concentration. The compounds of the present invention (B, K, M and N) and the known compound (Y) were dissolved in sterilized distilled water to prepare a solution of 5000 μg/ml in concentration. Each solution was diluted with sterilized distilled water to prepare a standard solution with a concentration of each test compound: 1000 μg/ml. The test was carried out by a method as appointed by Japan Society of Chemotherapy [cf. Chemotherapy, 29, 76-79 (1981)(TOKYO)].
# [2] = test system: Micrococcus luteus ATCC 9341; assay: Antibacterial activity (MIC), Micrococcus luteus ATCC 9341; conditions: ATCC9341; Micrococcus luteus ATCC 9341, Gram +; read-out: Minimum inhibitory concentration (MIC)
# Protocol: as §1
# [3] = test system: Klebsiella pneumoniae PCI-602; assay: Antibacterial activity (MIC), Klebsiella pneumoniae PCI-602; conditions: PCI602; Klebsiella pneumoniae PCI-602, Gram -; read-out: Minimum inhibitory concentration (MIC)
# Protocol: as §1
# [4] = test system: Staphylococcus epidermidis IAM-1296; assay: Antibacterial activity (MIC), S. epidermidis IAM-1296; conditions: Staphylococcus epidermidis
# Protocol: as §1
# [5] = test system: Enterobacter cloacae 963; assay: Antibacterial activity (MIC), Enterobacter cloacae 963
# Protocol: as §1
# [6] = test system: Citrobacter freundii NIHJ 10018-68; assay: Antibacterial activity (MIC), Citrobacter freundii NIHJ 10018-68; conditions: Citrobacter freundii, NIHJ10018, Citrobacter freundii NIHJ 10018-68, Gram -; read-out: Minimum inhibitory concentration (MIC)
# Protocol: as §1
# [7] = test system: Serratia marcescens IAM 1184; assay: Antibacterial activity (MIC), Serratia marcescens IAM 1184; conditions: Serratia marcescens, IAM1184, Serratia marcescens IAM 1184, Gram -; read-out: Minimum inhibitory concentration (MIC)
# Protocol: as §1
# [8] = test system: Escherichia coli KC-14; assay: Antibacterial activity (MIC), E. coli KC-14
# Protocol: as §1
# [9] = test system: Enterobacter aerogenes ATCC 13048; assay: Antibacterial activity (MIC), Enterobacter aerogenes ATCC 13048; conditions: Klebsiella aerogenes
# Protocol: as §1
# [10] = test system: Staphylococcus aureus IID 803; assay: Antibacterial activity (MIC), S. aureus IID 803
# Protocol: as §1
# [11] = test system: Morganella morganii IFO 3848; assay: Antibacterial activity (MIC), Morganella morganii IFO 3848; conditions: Morganella morganii, IFO3848, Morganella morganii IFO 3848, Gram -; read-out: Minimum inhibitory concentration (MIC)
# Protocol: as §1
# [12] = test system: Pseudomonas aeruginosa IFO 3445; assay: Antibacterial activity (MIC), P. aeruginosa IFO 3445; conditions: Pseudomonas aeruginosa, IFO3445, Pseudomonas aeruginosa IFO 3445, Gram -; read-out: Minimum inhibitory concentration (MIC)
# Protocol: as §1
# [13] = test system: Shigella sonnei EW-33; assay: Antibacterial activity (MIC), Shigella sonnei EW-33; conditions: Shigella sonnei, EW33, Shigella sonnei EW-33, Gram -; read-out: Minimum inhibitory concentration (MIC)
# Protocol: as §1
# [14] = test system: Escherichia coli NIHJ JC-2; assay: Antibacterial activity (MIC), E. coli NIHJ JC-2
# Protocol: as §1
# [15] = test system: Pseudomonas aeruginosa E-2; assay: Antibacterial activity (MIC), P. aeruginosa E-2; conditions: E2; Pseudomonas aeruginosa E-2, Gram -; read-out: Minimum inhibitory concentration (MIC)
# Protocol: as §1
# [16] = test system: Bacillus subtilis ATCC 6633; assay: Antibacterial activity (MIC), Bacillus subtilis ATCC 6633; conditions: Bacillus subtilis, ATCC6633, Bacillus subtilis ATCC 6633, Gram +; read-out: Minimum inhibitory concentration (MIC)
# Protocol: as §1
# [17] = test system: Salmonella typhimurium IID 971; assay: Antibacterial activity (MIC), Salmonella typhimurium IID 971; conditions: Salmonella enterica, read-out: Minimum inhibitory concentration (MIC)
# Protocol: as §1
# [18] = test system: Acinetobacter calcoaceticus AC 54; assay: Antibacterial activity (MIC), Acinetobacter calcoaceticus AC 54; conditions: AC54; Acinetobacter calcoaceticus AC 54, Gram -; read-out: Minimum inhibitory concentration (MIC)
# Protocol: as §1
# [19] = test system: Staphylococcus aureus FDA 209P JC-1; assay: Antibacterial activity (MIC), S. aureus FDA 209P JC-1; conditions: FDA209P, read-out: Minimum inhibitory concentration (MIC)
# Protocol: as §1
# [20] = test system: Proteus vulgaris OX-19; assay: Antibacterial activity (MIC), Proteus vulgaris OX-19
# Protocol: as §1
# [21] = test system: Pseudomonas aeruginosa NCTC 10490; assay: Antibacterial activity (MIC), P. aeruginosa NCTC 10490; conditions: Pseudomonas aeruginosa, NCTC10490, Pseudomonas aeruginosa NCTC 10490, Gram -; read-out: Minimum inhibitory concentration (MIC)
# Protocol: as §1
# [22] = test system: Proteus mirabilis IFO 3849; assay: Antibacterial activity (MIC), Proteus mirabilis IFO 3849; conditions: IFO3849; Proteus mirabilis IFO 3849, Gram -; read-out: Minimum inhibitory concentration (MIC)
# Protocol: as §1
# [23] = Escherichia coli, KC14, read-out: Minimum inhibitory concentration (MIC)
# [24] = Staphylococcus aureus, IID803, read-out: Minimum inhibitory concentration (MIC)
# [25] = OX19, Proteus vulgaris OX-19, Gram -, read-out: Minimum inhibitory concentration (MIC)
# [26] = IAM1296, Staphylococcus epidermidis IAM-1296, Gram +, read-out: Minimum inhibitory concentration (MIC)
# [27] = Enterobacter cloacae, 963, Enterobacter cloacae 963, Gram -, read-out: Minimum inhibitory concentration (MIC)
# [28] = ATCC13048, Enterobacter aerogenes ATCC 13048, Gram -, read-out: Minimum inhibitory concentration (MIC)
# [29] = NIHJJC2, Escherichia coli NIHJ JC-2, Gram -, read-out: Minimum inhibitory concentration (MIC)
# [30] = Salmonella typhimurium IID 971, Gram -
Structure (SMILES),MIC [1],MIC [2],MIC [3],MIC [6],MIC [7],"MIC [8, 23]","MIC [10, 24]",MIC [11],MIC [12],MIC [13],MIC [15],MIC [16],MIC [18],MIC ([19]; Staphylococcus aureus),"MIC [20, 25]",MIC [21],MIC [22],"MIC [4, 26]","MIC [5, 27]","MIC [9, 28]",other results
"CC1CN(c2c(F)cc3c(=O)c(C(=O)O)c4scc5n4c3c2N(C)C5)CCN1 (stereo not drawn) [Compound (D), 9,1-(Methylimino)methano-7-fluoro-8-(3-methyl-1-piperazinyl)-5-oxo-5H-thiazolo[3,2-a]quinoline-4-carboxylic acid]",0.1 µg/mL,0.39 µg/mL,0.006 µg/mL,0.39 µg/mL,0.39 µg/mL,0.05 µg/mL,0.05 µg/mL,0.1 µg/mL,0.78 µg/mL,0.05 µg/mL,0.78 µg/mL,0.006 µg/mL,0.025 µg/mL,0.05 µg/mL,0.006 µg/mL,0.39 µg/mL,0.2 µg/mL,,,,"MIC ([4]; IAM1296, read-out: Minimum inhibitory concentration (MIC)): 0.05 µg/mL; MIC ([5]; Enterobacter cloacae, 963, read-out: Minimum inhibitory concentration (MIC)): 0.05 µg/mL; MIC ([9]; ATCC13048, read-out: Minimum inhibitory concentration (MIC)): 0.05 µg/mL; MIC ([14]; Escherichia coli, NIHJJC2, read-out: Minimum inhibitory concentration (MIC)): 0.05 µg/mL; MIC [17]: 0.05 µg/mL"
"CC1CN(c2c(F)cc3c(=O)c(C(=O)O)c4scc5n4c3c2N(C)C5)CC(C)N1 (stereo not drawn) [Compound (E), 9,1-(Methylimino)methano-7-fluoro-8-(3,5-dimethyl-1-piperazinyl)-5-oxo-5H-thiazolo[3,2-a]-quinoline-4-carboxylic acid]",0.2 µg/mL,0.39 µg/mL,0.006 µg/mL,1.56 µg/mL,0.78 µg/mL,0.05 µg/mL,0.05 µg/mL,0.39 µg/mL,1.56 µg/mL,0.05 µg/mL,1.56 µg/mL,0.025 µg/mL,0.025 µg/mL,0.05 µg/mL,,0.39 µg/mL,0.78 µg/mL,0.1 µg/mL,0.2 µg/mL,0.2 µg/mL,"MIC [14, 29]: 0.1 µg/mL; MIC [17, 30]: 0.1 µg/mL; MIC ([20]; Proteus vulgaris, OX19, read-out: Minimum inhibitory concentration (MIC)): 0.05 µg/mL"
"CN1Cc2csc3c(C(=O)O)c(=O)c4cc(F)c(N5CCC(N)C5)c1c4n23 (stereo not drawn) [(H), 9,1-(Methylimino)methano-7-fluoro-8-(3-amino-1-pyrrolidinyl)-5-oxo-5H-thiazolo[3,2-a]quinoline-4-carboxylic acid]",0.05 µg/mL,0.2 µg/mL,0.006 µg/mL,0.1 µg/mL,0.1 µg/mL,,,0.05 µg/mL,0.2 µg/mL,0.05 µg/mL,0.39 µg/mL,0.006 µg/mL,0.0125 µg/mL,,0.0125 µg/mL,0.2 µg/mL,0.1 µg/mL,0.05 µg/mL,0.05 µg/mL,0.05 µg/mL,"MIC ([8]; KC14, Escherichia coli KC-14, Gram -, read-out: Minimum inhibitory concentration (MIC)): 0.0125 µg/mL; MIC ([10]; IID803, Staphylococcus aureus IID 803, Gram +, read-out: Minimum inhibitory concentration (MIC)): 0.006 µg/mL; MIC [14, 29]: 0.05 µg/mL; MIC [17, 30]: 0.05 µg/mL; MIC ([19]; Staphylococcus aureus FDA 209P JC-1, Gram +): 0.025 µg/mL"

# — patent US4971967A, “Quinolinecarboxylic acid derivatives, antibacterial compositions and use” (Kanebo Ltd, priority 1989, dated 1990)
